Assay results from ChEMBL document CHEMBL1147298, “An antitumor principle from Suillus granulatus” (1989).
≈ marks a conversion by molar mass, not a printed value.

Assays:
Type in all cases: functional
[1] = system: KB; assay: Cytotoxicity against human KB cells; details: read-out: ID50 (the source's name)
[2] = system: P388; assay: In vivo antitumor activity against mouse P388 cells at 10 mg/kg, ip administered on 1,5 and 9 days relative to control; details: route intraperitoneal
[3] = system: P388; assay: In vivo antitumor activity against mouse P388 cells at 5 mg/kg, ip administered on 1,5 and 9 days relative to control; details: route intraperitoneal
[4] = system: P388; assay: Cytotoxicity against mouse P388 cells; details: read-out: ID50 (the source's name)
[5] = Cytotoxicity against human NSCLC-N6 cells; details: read-out: ID50 (the source's name)

Structure (SMILES) | IC50 [1] [µg/mL] | T/C [2] [%] | T/C [3] [%] | IC50 [4] [µg/mL] | IC50 [5] [µg/mL]
CC(=O)Oc1ccc(OC(C)=O)c(OC(C)=O)c1C/C=C(\C)CC/C=C(\C)CC/C=C(\C)CCC=C(C)C | 1.8 (≈ 3.43 µM) | – | – | – | –
CC(=O)Oc1ccc(O)c(O)c1C/C=C(\C)CC/C=C(\C)CC/C=C(\C)CCC=C(C)C [TETRAPRENYLPHENOLSUILLIN] | 0.69 (≈ 1.57 µM) | 160 | 151 | 0.85 (≈ 1.93 µM) | 1.02 (≈ 2.31 µM)
